# From PubChem BioAssay AID1963967 (Molecular Pharmacology Branch, DTP, NCI, 2024)
# pIC50: −log10 of the molar value.
# Test system: 855422-203-R-J1-PDC spheroids with HUVEC/MSC, viability
# Test: Anticancer human tumor 855422-203-R-J1-PDC patient-derived bladder carcinoma cell line growth inhibition [PI3K]
# Details: for pIC50: curve of first compound; for viability, T/C: stronger effect = lower value
# Outline: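 We assembled tumor spheroids that included a stromal compartment of HUVEC and MSCs, then exposed them to targeted agents alone and together with PI3K pathway inhibitors. Concentration series descended by half-log from clinically achievable Cmax levels. Viability served as the endpoint.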
# [1] = second compound 0.0316 µM, first compound 0.0316 µM
# [2] = second compound 0.0316 µM, first compound 0.1 µM
# [3] = second compound 0.0316 µM, first compound 0.316 µM
# [4] = second compound 0.0316 µM, first compound 1 µM
# [5] = second compound 0.0316 µM, first compound 3.16 µM
# [6] = second compound 0.0316 µM, first compound 10 µM
# [7] = second compound 0.1 µM, first compound 0.0316 µM
# [8] = second compound 0.1 µM, first compound 0.1 µM
# [9] = second compound 0.1 µM, first compound 0.316 µM
# [10] = second compound 0.1 µM, first compound 1 µM
# [11] = second compound 0.1 µM, first compound 3.16 µM
# [12] = second compound 0.1 µM, first compound 10 µM
# [13] = second compound 0.316 µM, first compound 0.0316 µM
# [14] = second compound 0.316 µM, first compound 0.1 µM
# [15] = second compound 0.316 µM, first compound 0.316 µM
# [16] = second compound 0.316 µM, first compound 1 µM
# [17] = second compound 0.316 µM, first compound 3.16 µM
# [18] = second compound 0.316 µM, first compound 10 µM
# [19] = second compound 1 µM, first compound 0.0316 µM
# [20] = second compound 1 µM, first compound 0.1 µM
# [21] = second compound 1 µM, first compound 0.316 µM
# [22] = second compound 1 µM, first compound 1 µM
# [23] = second compound 1 µM, first compound 3.16 µM
# [24] = second compound 1 µM, first compound 10 µM
# 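Note: agents incubated with spheroids for one week before read-out.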
# 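Throughout, for viability, T/C: 100% = DMSO vehicle-treated control wells.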
structure (smiles),measurement,setting,value
Cn1nccc1Nc1nccc(-c2ccn(C(CO)c3ccc(Cl)c(F)c3)c(=O)c2)n1 (centres undefined) + COc1c(OCCCN2CCOCC2)ccc2c3n(c(=NC(=O)c4cnc(N)nc4)nc12)CCN3,pIC50,second compound 0.00316 µM,5.15
same,pIC50,second compound 0.01 µM,5.30
same,pIC50,second compound 0.0316 µM,5.98
same,pIC50,second compound 0.1 µM,> 7.50
same,pIC50,second compound 0.316 µM,> 7.50
same,pIC50,second compound 1 µM,> 7.50
same,"viability, T/C","second compound 0.00316 µM, first compound 0.0316 µM",94.4%
same,"viability, T/C","second compound 0.00316 µM, first compound 0.1 µM",91.3%
same,"viability, T/C","second compound 0.00316 µM, first compound 0.316 µM",106%
same,"viability, T/C","second compound 0.00316 µM, first compound 1 µM",93.5%
same,"viability, T/C","second compound 0.00316 µM, first compound 3.16 µM",83.7%
same,"viability, T/C","second compound 0.00316 µM, first compound 10 µM",35.7%
same,"viability, T/C","second compound 0.01 µM, first compound 0.0316 µM",88.8%
same,"viability, T/C","second compound 0.01 µM, first compound 0.1 µM",91.7%
same,"viability, T/C","second compound 0.01 µM, first compound 0.316 µM",83.3%
same,"viability, T/C","second compound 0.01 µM, first compound 1 µM",94.7%
same,"viability, T/C","second compound 0.01 µM, first compound 3.16 µM",67%
same,"viability, T/C","second compound 0.01 µM, first compound 10 µM",24.3%
same,"viability, T/C",[1],61%
same,"viability, T/C",[2],59.8%
same,"viability, T/C",[3],53.6%
same,"viability, T/C",[4],51.6%
same,"viability, T/C",[5],38.1%
same,"viability, T/C",[6],12.8%
same,"viability, T/C",[7],25.1%
same,"viability, T/C",[8],22.6%
same,"viability, T/C",[9],22.3%
same,"viability, T/C",[10],17.9%
same,"viability, T/C",[11],10.5%
same,"viability, T/C",[12],6.36%
same,"viability, T/C",[13],7.7%
same,"viability, T/C",[14],8.43%
same,"viability, T/C",[15],5.39%
same,"viability, T/C",[16],3.86%
same,"viability, T/C",[17],3.44%
same,"viability, T/C",[18],1.9%
same,"viability, T/C",[19],2.72%
same,"viability, T/C",[20],2.95%
same,"viability, T/C",[21],1.79%
same,"viability, T/C",[22],2.14%
same,"viability, T/C",[23],0.55%
same,"viability, T/C",[24],0.89%
C#Cc1c(F)ccc2cc(O)cc(-c3ncc4c(N5CC6CCC(C5)N6)nc(OCC56CCCN5CC(F)C6)nc4c3F)c12 (centres undefined) + CC(Nc1ncnc2nc[nH]c12)c1cc2cccc(Cl)c2c(=O)n1-c1ccccc1,pIC50,second compound 0.0316 µM,< 5.00
same,pIC50,second compound 0.1 µM,< 5.00
same,pIC50,second compound 0.316 µM,< 5.00
same,pIC50,second compound 1 µM,< 5.00
same,pIC50,second compound 3.16 µM,< 5.00
same,pIC50,second compound 10 µM,< 5.00
same,"viability, T/C",[1],105%
same,"viability, T/C",[2],101%
same,"viability, T/C",[3],116%
same,"viability, T/C",[4],98.3%
same,"viability, T/C",[5],112%
same,"viability, T/C",[6],119%
same,"viability, T/C",[7],107%
same,"viability, T/C",[8],102%
same,"viability, T/C",[9],107%
same,"viability, T/C",[10],101%
same,"viability, T/C",[11],110%
same,"viability, T/C",[12],112%
same,"viability, T/C",[13],98.1%
same,"viability, T/C",[14],108%
same,"viability, T/C",[15],96.6%
same,"viability, T/C",[16],102%
same,"viability, T/C",[17],106%
same,"viability, T/C",[18],121%
same,"viability, T/C",[19],102%
same,"viability, T/C",[20],102%
same,"viability, T/C",[21],103%
same,"viability, T/C",[22],109%
same,"viability, T/C",[23],104%
same,"viability, T/C",[24],115%
same,"viability, T/C","second compound 3.16 µM, first compound 0.0316 µM",107%
same,"viability, T/C","second compound 3.16 µM, first compound 0.1 µM",99.1%
same,"viability, T/C","second compound 3.16 µM, first compound 0.316 µM",112%
same,"viability, T/C","second compound 3.16 µM, first compound 1 µM",93.7%
same,"viability, T/C","second compound 3.16 µM, first compound 3.16 µM",98.1%
same,"viability, T/C","second compound 3.16 µM, first compound 10 µM",126%
same,"viability, T/C","second compound 10 µM, first compound 0.0316 µM",87.2%
same,"viability, T/C","second compound 10 µM, first compound 0.1 µM",82.8%
same,"viability, T/C","second compound 10 µM, first compound 0.316 µM",80%
same,"viability, T/C","second compound 10 µM, first compound 1 µM",88.5%
same,"viability, T/C","second compound 10 µM, first compound 3.16 µM",94%
same,"viability, T/C","second compound 10 µM, first compound 10 µM",88.9%
